# Results from patent publication US10328163B2, “Compounds binding to neuropathological aggregates” (Technische Universität München, priority 2014, dated 2019).
# “Also recorded” adds a separate entry of the source. Like-named read-outs stand apart in the source and are kept apart here.
# Legend:
# [1] = tested on: Aβ1-40, Aβ1-42, τ, α-Syn aggregates; test: In vitro selectivity / binding profile across aggregates (potential use: targeting of); settings: for Potential Use: Targeting of (in vitro selectivity): Table 2
# Protocol: (§1) Saturation and competition binding assays of compounds in this invention towards synthetic amyloid peptides, human tau-441 recombinant and human α-synuclein recombinant aggregate (fibrils) were performed similar to previously reported assays (Manook et al. 2012 and Yousefi et al. 2011) and adapted to the change of peptides and label. Aggregates sample was deployed on 96-well cell culture plates (Greiner Bio-One, Germany) to a final reaction volume of […] per well using 8-channel electronic pipettes (Mettler Toledo, Germany) giving 12-24 octuples of data points per sample. Bound and free fractions were separated by vacuum filtration through polyethyleneimine-pretreated GF/B glass filtermats using a semi-automated Harvester 96 Mach II M (Tomtec, USA). Filters were cut and retained radioactivity determined using an automatic NaI(TI) well-type γ-detector (Wallac 1480-011 Automatic Gamma Counter, PerkinElmer, USA). Data were processed and analyzed using GraphPad Prism 6.0 (GraphPad Software, USA).
# [2] = molecular target: human α-synuclein recombinant aggregate (fibrils) (Homo sapiens, UniProt P37840); test: Saturation and competition binding assay on α-synuclein aggregates (fibrils); settings: read-out: Affinity Ki, α-syn
# Protocol: as §1
# Aβ1-40 = Aβ1-40 (Homo sapiens, UniProt P05067); test: Competition binding assay vs [^3H]PiB on synthetic amyloid peptide aggregates (Aβ1-40); settings: for inhibition at 0.1 µM: 100 nM; for Ki: read-out: Affinity Ki, Aβ1-40
# Aβ1-40, sequence (P05067 672-711): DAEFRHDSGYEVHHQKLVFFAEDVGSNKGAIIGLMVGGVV
# Protocol: as §1
# Aβ1-42 = Aβ1-42 (Homo sapiens, UniProt P05067); test: Competition binding assay vs [^3H]PiB on synthetic amyloid peptide aggregates (Aβ1-42); settings: for inhibition at 0.1 µM: 100 nM; for Ki: read-out: Affinity Ki, Aβ1-42
# Aβ1-42, sequence (P05067 672-713): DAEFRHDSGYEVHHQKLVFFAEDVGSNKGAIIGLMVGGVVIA
# Protocol: as §1
# [3] = molecular target: human tau-441 recombinant aggregate (fibrils) (Homo sapiens, UniProt P10636); test: Saturation and competition binding assay on tau aggregates (fibrils)
# human tau-441 recombinant aggregate (fibrils), sequence (P10636 1-441 isoform P10636-8): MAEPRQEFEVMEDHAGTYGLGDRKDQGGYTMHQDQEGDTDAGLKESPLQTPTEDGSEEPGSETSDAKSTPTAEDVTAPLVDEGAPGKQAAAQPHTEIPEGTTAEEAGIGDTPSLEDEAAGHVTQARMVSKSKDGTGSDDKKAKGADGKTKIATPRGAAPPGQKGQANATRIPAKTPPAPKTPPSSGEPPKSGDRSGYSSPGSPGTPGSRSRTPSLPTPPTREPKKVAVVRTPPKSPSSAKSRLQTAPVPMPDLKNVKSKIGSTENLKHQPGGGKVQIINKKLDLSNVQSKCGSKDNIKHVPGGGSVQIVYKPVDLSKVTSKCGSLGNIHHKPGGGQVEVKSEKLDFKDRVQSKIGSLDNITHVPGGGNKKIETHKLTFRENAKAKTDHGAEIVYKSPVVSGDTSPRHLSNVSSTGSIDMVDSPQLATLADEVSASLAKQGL
# Protocol: as §1
# [4] = molecular target: T1, Aβ1-40, Aβ1-42, τ, α-Syn aggregates; test: In vitro selectivity / binding profile across aggregates (potential use: targeting of); settings: span over all aggregate types, summary of Table 1; read-out: in vitro affinity (Ki) to β-amyloids, NFT τ and synuclein aggregates
# T1 construct: other: span over all aggregate types, text summar
# Protocol: as §1
# Aβ and NFT = test: Ex vivo validation on APP/PS1-tau triple transgenic mouse brain, cross-validated with thioflavin S and AT8; assay type: in vivo
# β-amyloids = test: In vitro staining of APP/PS1 tg mouse brain; assay type: binding; settings: 24 month old, 1% solution of compound
# log P (octanol/PBS) = assay type: physicochemical; settings: Table 2
# Text: Lipophilicity of CNS tracers plays an important role on blood brain barrier (BBB) and neuronal cells uptake. Therefore a library of ^18F-bithiazoles with high binding affinity towards Aβ1-40, Aβ1-42 τ, α-Syn were synthesized and log P (octanol/PBS) of these compounds measured (Table 2). The log P values were between 1.1-3.2.
# [5] = Table 1, read-out: Affinity Ki, T
# [6] = Table 3, read-out: Affinity Ki, τ
compound,measurement,setting,value
CN(C)c1ccc(-c2csc(-c3nc(-c4ccc(O)cc4)cs3)n2)cc1 [Compound 1],Potential Use: Targeting of,[1]; Table 1,Aβ
same,Ki,[2]; Table 1,> 1000 nM
same,inhibition at 0.1 µM,Aβ1-40; Table 1,94%
same,Ki,Aβ1-40; Table 1,4 nM
same,inhibition at 0.1 µM,Aβ1-42; Table 1,88 ± 1%
same,Ki,Aβ1-42; Table 1,6 nM
same,Ki,[3]; [5],> 1000 nM
COc1ccc(-c2csc(-c3nc(-c4ccc5c(c4)OCO5)cs3)n2)cc1O [Compound 2],Ki,[4],7 to 12 nM
same,Potential Use: Targeting of,[1]; Table 1,"Aβ, α-syn, τ- aggregates (PAN- ligand)"
same,"ex vivo brain staining, targets labelled","Aβ and NFT; APP/PS1-tau triple transgenic mouse, 24 month old, 45 min p.i., 0.6 mg in DMSO, cortical (FIG. 3) and hippocampus (FIG. 4) region",targets Aβ and NFT in the mouse model
same,"specificity of binding, ex vivo and in vitro validation",Aβ and NFT; APP/PS1 and APP/PS1-tau triple tg mouse model of AD brain,specific binding of compound 2 to Aβ and NFT
same,Ki,[2]; Table 1,9 nM
same,inhibition at 0.1 µM,Aβ1-40; Table 1,81 ± 2%
same,Ki,Aβ1-40; Table 1,10 nM
same,inhibition at 0.1 µM,Aβ1-42; Table 1,86 ± 1%
same,Ki,Aβ1-42; Table 1,7 nM
same,in vitro staining of brain,β-amyloids,specific binding to β-amyloids; also recorded: targets Aβ in the mouse model
same,Ki,[3]; [5],12 nM
COc1ccc(-c2csc(-c3nc(-c4ccc5c(c4)OCO5)cs3)n2)cc1F [Compound 3],Ki,[2]; Table 1,3 nM
same,inhibition at 0.1 µM,Aβ1-40; Table 1,22 ± 1%
same,inhibition at 0.1 µM,Aβ1-42; Table 1,45 ± 2%
same,Ki,Aβ1-42; Table 1,382 nM
same,Ki,[3]; [5],> 1000 nM
CCOc1ccc(-c2csc(-c3nc(-c4ccc5c(c4)OCO5)cs3)n2)cc1 [Compound 4],Ki,[2]; Table 1,10 nM
same,inhibition at 0.1 µM,Aβ1-40; Table 1,11 ± 2%
same,inhibition at 0.1 µM,Aβ1-42; Table 1,45 ± 2%
same,Ki,Aβ1-42; Table 1,386 nM
same,Ki,[3]; [5],558 nM
CCCCOc1ccc(-c2csc(-c3nc(-c4ccc(OC)c(F)c4)cs3)n2)cc1 [Compound 5],Potential Use: Targeting of,[1]; Table 1,"Aβ, α-syn aggregates low binding site"
same,Ki,[2]; Table 1,328 nM
same,inhibition at 0.1 µM,Aβ1-40; Table 1,11%
same,inhibition at 0.1 µM,Aβ1-42; Table 1,45 ± 1%
same,Ki,Aβ1-42; Table 1,380 nM
same,Ki,[3]; [5],> 1000 nM
CCOc1ccc(-c2csc(-c3nc(-c4ccc(OC)cc4)cs3)n2)cc1 [Compound 6],Potential Use: Targeting of,[1]; Table 1,α-syn aggregates low binding site
same,Ki,[2]; Table 1,371 nM
same,inhibition at 0.1 µM,Aβ1-40; Table 1,22 ± 1%
same,inhibition at 0.1 µM,Aβ1-42; Table 1,30 ± 1%
same,Ki,[3]; [5],> 1000 nM
CN(C)c1ccc(-c2csc(-c3nc(-c4ccc(OCF)cc4)cs3)n2)cc1 [Compound 7],Potential Use: Targeting of (in vitro selectivity),[1],Aβ
same,logP,log P (octanol/PBS),3.2
Oc1cc(-c2csc(-c3nc(-c4ccc5c(c4)OCO5)cs3)n2)ccc1OCCF [Compound 8],Potential Use: Targeting of (in vitro selectivity),[1],PAN
same,logP,log P (octanol/PBS),2.1
Oc1cc(-c2csc(-c3nc(-c4ccc5c(c4)OCO5)cs3)n2)ccc1OCCOCCF [Compound 9],Potential Use: Targeting of (in vitro selectivity),[1],PAN
same,logP,log P (octanol/PBS),1.9
FCCOc1ccc(-c2csc(-c3nc(-c4ccc5c(c4)OCO5)cs3)n2)cc1 [Compound 10],Potential Use: Targeting of (in vitro selectivity),[1],α-syn
same,logP,log P (octanol/PBS),2.6
FCCOCCOc1ccc(-c2csc(-c3nc(-c4ccc5c(c4)OCO5)cs3)n2)cc1 [Compound 11],Potential Use: Targeting of (in vitro selectivity),[1],α-syn
same,logP,log P (octanol/PBS),2.5
Nc1ccc(-c2csc(-c3nc(-c4ccc(NCCOCCOCCF)cc4)cs3)n2)cc1 [Compound 12],Potential Use: Targeting of (in vitro selectivity),[1],Aβ
same,logP,log P (octanol/PBS),2
CN(C)c1ccc(-c2csc(-c3nc(-c4ccc(OCCOCCF)cc4)cs3)n2)cc1 [Compound 13],Potential Use: Targeting of (in vitro selectivity),[1],Aβ
same,logP,log P (octanol/PBS),2.6
Oc1ccc(-c2csc(-c3nc(-c4ccc(OCCOCCF)cc4)cs3)n2)cc1 [Compound 14],Potential Use: Targeting of (in vitro selectivity),[1],The low binding site of Aβ
same,logP,log P (octanol/PBS),1.9
FCOc1ccc(-c2csc(-c3nc(-c4ccc5c(c4)OCO5)cs3)n2)cc1 [Compound 15],Potential Use: Targeting of (in vitro selectivity),[1],α-syn
same,logP,log P (octanol/PBS),2.6
Oc1ccc(-c2csc(-c3nc(-c4ccc(OCCOCCF)c(O)c4)cs3)n2)cc1O [Compound 16],Potential Use: Targeting of (in vitro selectivity),[1],PAN
same,logP,log P (octanol/PBS),1.1
Oc1ccc(-c2csc(-c3nc(-c4ccc(OCCOCCOCCF)cc4)cs3)n2)cc1 [Compound 17],Potential Use: Targeting of (in vitro selectivity),[1],The low binding site of Aβ
same,logP,log P (octanol/PBS),1.8
FCCOCCOCCOc1ccc(-c2csc(-c3nc(-c4ccc5c(c4)OCO5)cs3)n2)cc1 [Compound 18],Potential Use: Targeting of (in vitro selectivity),[1],α-syn
same,logP,log P (octanol/PBS),2.3
CN(C)c1ccc(-c2csc(-c3nc(-c4ccc(NCCOCCOCCF)cc4)cs3)n2)cc1 [Compound 19],Potential Use: Targeting of (in vitro selectivity),[1],Aβ
same,logP,log P (octanol/PBS),2.4
CN(C)c1ccc(-c2csc(-c3nc(-c4ccc(O)nc4)cs3)n2)cc1 [Compound 20],Potential Use: Targeting of (in vitro selectivity),[1],Aβ
same,Potential Use: Targeting of,[1]; Table 3,Aβ
same,Ki,[2]; Table 3,> 1000 nM
same,logP,log P (octanol/PBS),1.9
same,inhibition at 0.1 µM,Aβ1-40; Table 3,90%
same,Ki,Aβ1-40; Table 3,5 nM
same,inhibition at 0.1 µM,Aβ1-42; Table 3,89 ± 1%
same,Ki,Aβ1-42; Table 3,6 nM
same,Ki,[3]; [6],> 1000 nM
CN(C)c1ccc(-c2csc(-c3nc(-c4ccc(F)nc4)cs3)n2)cc1 [Compound 21],Potential Use: Targeting of (in vitro selectivity),[1],Aβ
same,Potential Use: Targeting of,[1]; Table 3,Aβ
same,Ki,[2]; Table 3,> 1000 nM
same,logP,log P (octanol/PBS),2.1
same,inhibition at 0.1 µM,Aβ1-40; Table 3,89 ± 2%
same,Ki,Aβ1-40; Table 3,6 nM
same,inhibition at 0.1 µM,Aβ1-42; Table 3,88 ± 1%
same,Ki,Aβ1-42; Table 3,6 nM
same,Ki,[3]; [6],> 1000 nM
Fc1ccc(-c2cc(-c3csc(-c4nc(-c5ccc6c(c5)OCO6)cs4)n3)on2)cc1 [Compound 22],Potential Use: Targeting of (in vitro selectivity),[1],α-syn
same,Ki,[2]; Table 3,6 nM
same,logP,log P (octanol/PBS),3.2
same,inhibition at 0.1 µM,Aβ1-40; Table 3,20 ± 1%
same,Ki,Aβ1-40; Table 3,> 500 nM
same,inhibition at 0.1 µM,Aβ1-42; Table 3,35 ± 2%
same,Ki,Aβ1-42; Table 3,492 nM
same,Ki,[3]; [6],> 1000 nM
COc1sc(-c2csc(-c3nc(-c4ccc5c(c4)OCO5)cs3)n2)cc1F [Compound 23],Potential Use: Targeting of (in vitro selectivity),[1],PAN
same,Potential Use: Targeting of,[1]; Table 3,PAN
same,Ki,[2]; Table 3,7 nM
same,logP,log P (octanol/PBS),2.9
same,inhibition at 0.1 µM,Aβ1-40; Table 3,87 ± 2%
same,Ki,Aβ1-40; Table 3,9 nM
same,inhibition at 0.1 µM,Aβ1-42; Table 3,86 ± 1%
same,Ki,Aβ1-42; Table 3,10 nM
same,Ki,[3]; [6],10 nM
